Data taken from patent US11420922B2, “Hydroxylated tropolone inhibitors of nucleotidyl transferases in herpesvirus and Hepatitis B and uses therefor” (Saint Louis University, priority 2015, dated 2022).
“Also recorded” adds a separate entry of the source.

Columns and labels:
[1] = Quantitative Vero cell toxicity (MTT); assay type: cell-based; settings: African green monkey, Vero cells
Description: Qualitative assessments of cytotoxicity were done visually by inspecting the cells in the primary screening assays. For the quantitative assays, cells were plated in 96-well plates at 1.0×10^4 per well. The next day the compounds were added at 0.78 to 100 μM in a final concentration of 1% (v/v) DMSO, and the cells were incubated for 24 hours under conditions identical to those employed for the viral replication inhibition assays. Mitochondrial toxicity was measured by incubating the cells with 0.25 mg/mL thiazolyl blue tetrazolium bromide (MTT, Sigma Aldrich Chemical Co.), the cultures were incubated for 60 min, metabolites were solubilized in acidic isopropanol, and absorbance was read at 570 nm. CC50 values were calculated by non-linear curve fitting using GraphPad Prism.
Quantitative toxicity measurements were conducted for all compounds that suppressed HSV replication by >2 log10 at 5 μM plus a number of compounds with lesser inhibitory activity for comparison. Toxicity was assessed by […]. Cells were plated in 96-well plates at 1.0×10^4 per well. The next day compound was added in concentrations ranging from 0.78 to 100 μM in a final concentration of 1% (v/v) DMSO. The cells were incubated for 24 h under conditions identical to those employed for the viral replication inhibition assays, and then mitochondrial activity was measured with the MTT assay (Sigma Aldrich) according to the manufacturer's instructions. Percent viability was determined for each compound concentration from the […], and then 50% cytotoxic concentrations (CC50) values were calculated by non-linear curve fitting using GraphPad Prism. Consistent with the subjective assessments of toxicity, all compounds selected for quantitative toxicity assessment had CC50 values≥50 μM under these conditions (Table 1).

[2] = Cytotoxicity reported with the HBV assay (Table 4); assay type: cell-based; settings: human, hepatoma cells; read-out: CC50 (HBV assay table)
Method in brief: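 Cells exposed 24 h to compounds at 0.78–100 μM in 1% DMSO, under the same conditions as the viral replication assays.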

HSV = assay: Anti-HSV SAR summary, HSV type not separated; assay type: cell-based, herpes simplex virus; settings: grouped by activity at 50, 5 and 0.5 μM
Method in brief: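 Confluent monolayers were infected with HSV-1 or HSV-2 at MOI 0.1 in the presence of compound at 50 and 5 µM for 1 h at 37 °C. Compound was then re-added in DMEM/2% newborn calf serum for 23 h more. Yield was titred by plaque assay on Vero cells, with DMSO controls. EC50 values came from serial dilutions starting at 50 µM, fitted by non-linear regression.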

HSV-2 = assay: Combination of ACV and compound 118 against HSV-2 in Vero cells (plaque assay, qPCR, Chou-Talalay); assay type: cell-based, herpes simplex virus 2; settings: constant ratios, MOI 0.1, 24 h, FIGS. 8A-8C
Description: After 24 h, the cultures were collected and divided into two aliquots. […] The area below the lines indicates synergism, and the area above indicates antagonism.

Cc1cc(O)c(=O)c(O)cc1C(=O)c1ccc(-c2ccccc2)cc1 [Compound 118]
CC50 at 24 h [1]: > 100 µM
CC50 at 24 h [2]: 21 µM
anti-HSV SAR group, in words (HSV): highly inhibitory at much lower concentrations; also recorded: fully inhibitory at 5 μM
interaction with ACV on HSV-2 replication and DNA accumulation (HSV-2): synergistically inhibit
